Assay results taken from ChEMBL document CHEMBL1909524, “Discovery of a novel series of cyclic urea as potent CCR5 antagonists” (Bioorg Med Chem Lett, 2011).

Experiments:
[1] = system: Human immunodeficiency virus 1; assay: Antiviral activity against HIV1 Ba-L infected in human HOS cells assessed as reduction of viral replication after 4 days by Steady-Glo luciferase assay; assay type: functional, organism-based; conditions: Human immunodeficiency virus 1, Ba-L, 96 h
[2] = Metabolic stability of the compound in fasted stimulated intestinal fluid; assay type: physicochemical; conditions: simulated gi fluid
PBL = assay: Cytotoxicity against human PBL cells assessed as cell death up to 1 uM by celltiter glo assay; assay type: cell-based
[3] = system: Human immunodeficiency virus 1; assay: Antiviral activity against HIV1 Ba-L infected in human PBL cells assessed as reduction of viral replication after 4 days by Steady-Glo luciferase assay; assay type: functional, organism-based; conditions: Human immunodeficiency virus 1, Ba-L, 96 h
HOS = assay: Cytotoxicity against human HOS cells assessed as cell death up to 1 uM by celltiter glo assay; assay type: cell-based
[4] = Oral bioavailability in monkey at 1 mg/kg; assay type: ADME, organism-based, Macaca mulatta; conditions: rhesus monkey, in vivo
[5] = Half life in dog at 1 mg/kg, iv; assay type: ADME, organism-based, Canis lupus familiaris; set-up: dose 1 mg/kg, route intravenous; conditions: in vivo
[6] = Half life in monkey at 1 mg/kg, iv; assay type: ADME, organism-based, Macaca mulatta; set-up: dose 1 mg/kg, route intravenous; conditions: rhesus monkey, in vivo
[7] = Clearance in rat; assay type: ADME, organism-based; conditions: in vivo
[8] = Clearance in dog at 1 mg/kg, po; assay type: ADME, organism-based, Canis lupus familiaris; set-up: dose 1 mg/kg, route oral; conditions: in vivo
[9] = Clearance in monkey at 1 mg/kg, po; assay type: ADME, organism-based, Macaca mulatta; set-up: dose 1 mg/kg, route oral; conditions: rhesus monkey, in vivo
[10] = Oral bioavailability in dog at 1 mg/kg; assay type: ADME, organism-based, Canis lupus familiaris; conditions: in vivo
[11] = Stability of the compound in fasted stimulated intestinal fluid within 1000 hrs; assay type: physicochemical; conditions: simulated gi fluid
[12] = Stability of the compound in fasted stimulated intestinal fluid assessed as half life at pH 6; assay type: physicochemical; conditions: fasted simulated intestinal fluid

With `Cc1nc(Oc2ccc(NS(C)(=O)=O)cc2)ccc1CN1CCC(N2C(=O)N(c3cc(C(N)=O)c(F)cc3F)C(=O)C2c2ccccc2)CC1` (racemic) the IC50 [1] was 14 nM and the Stability [2] was “Unstable”.
With `Cc1nc(Oc2ccc(S(C)(=O)=O)cc2F)ccc1CN1CCC(N2C(=O)N(c3cc(C(N)=O)c(F)cc3F)C[C@H]2c2ccccc2)CC1` the Activity (PBL) was “Non-toxic”, the IC50 [3] was 0.6 nM and the Activity (HOS) was “Non-toxic”. For the same compound, the IC50 [1] was 5.2 nM.
With `Cc1nc(Oc2ccc(S(=O)(=O)C(C)C)cc2)ccc1CN1CCC(N2C(=O)N(c3cc(C(N)=O)c(F)cc3F)C[C@H]2c2ccccc2)CC1` the Activity (PBL) was “Non-toxic”, the IC50 [3] was 1.1 nM and the Activity (HOS) was “Non-toxic”. It also gave an IC50 [1] of 3.6 nM.
`Cc1nc(Oc2ccc(NS(C)(=O)=O)cc2)ccc1CN1CCC(N(C(=O)Oc2ccc(F)c(C(N)=O)c2)c2cccc(F)c2)CC1` showed an IC50 [1] of 29 nM.
In the case of `Cc1nc(Oc2ccc(CC(=O)NC(C)C)cc2)ccc1CN1CCC(N2C(=O)N(c3cc(C(N)=O)c(F)cc3F)C[C@H]2c2ccccc2)CC1`, the Activity (PBL) is reported as “Non-toxic”, the IC50 [3] is reported as 0.5 nM and the Activity (HOS) is reported as “Non-toxic”. For the same compound, the IC50 [1] was 3.3 nM.
In the case of `Cc1nc(Oc2ccc(S(C)(=O)=O)cc2)ccc1CN1CCC(N2C(=O)N(c3cc(C(N)=O)c(F)cc3F)C[C@H]2c2ccccc2)CC1`, the bioavailability [4] is reported as 110%, the half-life [5] is reported as 6.9 h and the half-life [6] is reported as 1.4 h. For the same compound, the Activity (PBL) was “Non-toxic”, the IC50 [3] was 1 nM and the clearance [7] was 27 mL/min/kg. For the same compound, the CL/F [8] was 2.1 mL/min/kg, the Activity (HOS) was “Non-toxic” and the IC50 [1] was 4 nM. The CL/F [9] was 20.2 mL/min/kg, the bioavailability [10] was 76% and the Stability [11] was “Stable”.
With `Cc1nc(Oc2ccc(NS(C)(=O)=O)cc2)ccc1CN1CCC(N(C(=O)Nc2cc(C(N)=O)c(F)cc2F)c2cccc(F)c2)CC1` the half-life [12] was 334 h, the IC50 [3] was 0.6 nM and the IC50 [1] was 2 nM.
With `Cc1cc(S(C)(=O)=O)ccc1Oc1ccc(CN2CCC(N3C(=O)N(c4cc(C(N)=O)c(F)cc4F)C[C@H]3c3ccccc3)CC2)c(C)n1` the Activity (PBL) was “Non-toxic”, the Activity (HOS) was “Non-toxic” and the IC50 [1] was 5.4 nM.
With `Cc1nc(Oc2ccc(NS(C)(=O)=O)cc2)ccc1CN1CCC(N(Cc2ccccc2F)C(=O)Nc2cc(C(N)=O)c(F)cc2F)CC1` the IC50 [3] was 0.9 nM and the IC50 [1] was 1.7 nM.
`Cc1nc(Oc2ccc(S(C)(=O)=O)cc2)ccc1CN1CCC(N2C(=O)N(c3cc(C(N)=O)c(F)cc3F)CC2c2ccccc2)CC1` (racemic) gave an IC50 [3] of 2 nM and an IC50 [1] of 12 nM.
Compound `Cc1nc(Oc2ccc(S(C)(=O)=O)cc2)ccc1CN1CCC(N2C(=O)N(c3cc(C(N)=O)c(F)cc3F)C[C@@H]2c2ccccc2)CC1` has an IC50 [3] of 289 nM and an IC50 [1] of 213 nM.
With `CC(C)c1nc(Oc2ccc(S(C)(=O)=O)cc2)ccc1CN1CCC(N2C(=O)N(c3cc(C(N)=O)c(F)cc3F)C[C@H]2c2ccccc2)CC1` the Activity (PBL) was “Non-toxic”, the IC50 [3] was 1.6 nM and the Activity (HOS) was “Non-toxic”. For the same compound, the IC50 [1] was 2.6 nM.
